# Measurements published in PubChem BioAssay (NCI).
#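 Values below derive from 48-hour exposures of cells grown in 96-well plates, with endpoints linearly interpolated between the two concentrations bracketing the appropriate inhibition level. GI50 marks 50% less growth. The concentration for full growth arrest is given as TGI.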
# Columns and labels:
# Assay in all cases: growth of human tumour cells (NCI), 48 h
# A549 NSCLC = system: A549 NSCLC
# ACHN renal = system: ACHN renal
# CAKI-1 renal = system: CAKI-1 renal
# HCC-2998 colon = system: HCC-2998 colon
# NCI-H522 lung = system: NCI-H522 lung
# OVCAR-5 ovarian = system: OVCAR-5 ovarian
# SK-MEL-28 melanoma = system: SK-MEL-28 melanoma
# SN12C renal = system: SN12C renal
# TK-10 renal = system: TK-10 renal
# UACC-62 melanoma = system: UACC-62 melanoma
compound,measurement,setting,value
CS(=O)(=O)CS(=O)(=O)OCCCl,TGI,A549 NSCLC,1640 µM
same,TGI,ACHN renal,524 µM
same,TGI,CAKI-1 renal,799 µM
same,TGI,HCC-2998 colon,727 µM
same,TGI,NCI-H522 lung,723 µM
same,TGI,OVCAR-5 ovarian,1260 µM
same,TGI,SK-MEL-28 melanoma,1510 µM
same,TGI,SN12C renal,706 µM
same,TGI,TK-10 renal,1280 µM
same,TGI,UACC-62 melanoma,268 µM
Cc1ccc(C)c(N2C(=O)C(=O)C(c3nc4ccccc4o3)/C(=N/N)C2=O)c1 (stereo unspecified),TGI,A549 NSCLC,> 100 µM
same,TGI,ACHN renal,> 100 µM
same,TGI,CAKI-1 renal,> 100 µM
same,TGI,HCC-2998 colon,> 100 µM
same,TGI,NCI-H522 lung,> 100 µM
same,TGI,SK-MEL-28 melanoma,> 100 µM
same,TGI,SN12C renal,> 100 µM
same,TGI,TK-10 renal,> 100 µM
same,TGI,UACC-62 melanoma,> 100 µM
CCOC(=O)c1sc(NC(=O)COc2cccc(/C=C3\CCc4cc(OC)ccc4C3=O)c2)nc1C,GI50,A549 NSCLC,34.7 µM
same,TGI,A549 NSCLC,> 100 µM
same,GI50,ACHN renal,6 µM
same,TGI,ACHN renal,> 100 µM
same,GI50,CAKI-1 renal,7.16 µM
same,TGI,CAKI-1 renal,> 100 µM
same,GI50,HCC-2998 colon,8.59 µM
same,TGI,HCC-2998 colon,38.8 µM
same,GI50,NCI-H522 lung,3.6 µM
same,TGI,NCI-H522 lung,> 100 µM
same,GI50,OVCAR-5 ovarian,13.5 µM
same,TGI,OVCAR-5 ovarian,> 100 µM
same,GI50,SK-MEL-28 melanoma,18.2 µM
same,TGI,SK-MEL-28 melanoma,> 100 µM
same,GI50,SN12C renal,3.89 µM
same,TGI,SN12C renal,> 100 µM
same,GI50,TK-10 renal,21.7 µM
same,TGI,TK-10 renal,> 100 µM
same,GI50,UACC-62 melanoma,5.43 µM
same,TGI,UACC-62 melanoma,> 100 µM
Cc1noc2c1-c1ccccc1C(c1ccc(Cl)cc1)=N[C@H]2CC(N)=O,GI50,A549 NSCLC,18.3 µM
same,TGI,A549 NSCLC,> 100 µM
same,GI50,ACHN renal,6.37 µM
same,TGI,ACHN renal,> 100 µM
same,GI50,CAKI-1 renal,0.368 µM
same,TGI,CAKI-1 renal,> 100 µM
same,GI50,HCC-2998 colon,9.5 µM
same,TGI,HCC-2998 colon,> 100 µM
same,GI50,NCI-H522 lung,8.2 µM
same,TGI,NCI-H522 lung,> 100 µM
same,GI50,OVCAR-5 ovarian,> 100 µM
same,TGI,OVCAR-5 ovarian,> 100 µM
same,GI50,SK-MEL-28 melanoma,7.38 µM
same,TGI,SK-MEL-28 melanoma,> 100 µM
same,GI50,SN12C renal,38.2 µM
same,TGI,SN12C renal,> 100 µM
same,GI50,TK-10 renal,0.486 µM
same,TGI,TK-10 renal,> 100 µM
same,GI50,UACC-62 melanoma,0.462 µM
same,TGI,UACC-62 melanoma,> 58.9 µM
NC(CCc1ncc(C(=O)O)s1)C(=O)O (stereo unspecified),TGI,A549 NSCLC,> 100 µM
same,TGI,ACHN renal,> 100 µM
same,TGI,CAKI-1 renal,> 100 µM
same,TGI,HCC-2998 colon,> 100 µM
same,TGI,NCI-H522 lung,> 100 µM
same,TGI,SK-MEL-28 melanoma,> 100 µM
same,TGI,SN12C renal,> 100 µM
same,TGI,TK-10 renal,> 100 µM
same,TGI,UACC-62 melanoma,> 100 µM
c1ccc2c(c1)c1ccccc1c1ccccc21,GI50,A549 NSCLC,> 100 µM
same,TGI,A549 NSCLC,> 100 µM
same,GI50,ACHN renal,> 100 µM
same,TGI,ACHN renal,> 100 µM
same,GI50,CAKI-1 renal,> 100 µM
same,TGI,CAKI-1 renal,> 100 µM
same,GI50,HCC-2998 colon,> 100 µM
same,TGI,HCC-2998 colon,> 100 µM
same,GI50,NCI-H522 lung,> 100 µM
same,TGI,NCI-H522 lung,> 100 µM
same,GI50,OVCAR-5 ovarian,> 100 µM
same,TGI,OVCAR-5 ovarian,> 100 µM
same,GI50,SK-MEL-28 melanoma,> 100 µM
same,TGI,SK-MEL-28 melanoma,> 100 µM
same,GI50,SN12C renal,> 100 µM
same,TGI,SN12C renal,> 100 µM
same,GI50,TK-10 renal,> 100 µM
same,TGI,TK-10 renal,> 100 µM
same,GI50,UACC-62 melanoma,> 100 µM
same,TGI,UACC-62 melanoma,> 100 µM
Oc1ccc(N=Nc2nccs2)c(O)c1,GI50,A549 NSCLC,5.11 µM
same,TGI,A549 NSCLC,54.4 µM
same,GI50,ACHN renal,2.96 µM
same,TGI,ACHN renal,33.8 µM
same,GI50,CAKI-1 renal,0.417 µM
same,TGI,CAKI-1 renal,2.37 µM
same,GI50,HCC-2998 colon,3.92 µM
same,TGI,HCC-2998 colon,15 µM
same,GI50,NCI-H522 lung,3.5 µM
same,TGI,NCI-H522 lung,13.6 µM
same,GI50,OVCAR-5 ovarian,7.84 µM
same,TGI,OVCAR-5 ovarian,29.4 µM
same,GI50,SK-MEL-28 melanoma,10.4 µM
same,TGI,SK-MEL-28 melanoma,30.7 µM
same,GI50,SN12C renal,9.42 µM
same,TGI,SN12C renal,38.7 µM
same,GI50,TK-10 renal,14 µM
same,TGI,TK-10 renal,59.3 µM
same,GI50,UACC-62 melanoma,4.6 µM
same,TGI,UACC-62 melanoma,17.6 µM
C1=NC(N(Cc2ccccc2)Cc2ccccc2)N(Cc2ccccc2)N1 (stereo unspecified),TGI,A549 NSCLC,37.3 µM
same,TGI,ACHN renal,57 µM
same,TGI,CAKI-1 renal,46.1 µM
same,TGI,HCC-2998 colon,36.4 µM
same,TGI,NCI-H522 lung,40.9 µM
same,TGI,OVCAR-5 ovarian,42 µM
same,TGI,SK-MEL-28 melanoma,37.2 µM
same,TGI,SN12C renal,34.1 µM
same,TGI,TK-10 renal,86.4 µM
same,TGI,UACC-62 melanoma,27.2 µM
O=C1c2ccccc2C(=O)c2c(NCCN=Cc3ccccc3O)cccc21,GI50,A549 NSCLC,4.69 µM
same,TGI,A549 NSCLC,14.4 µM
same,GI50,ACHN renal,3.4 µM
same,TGI,ACHN renal,16.3 µM
same,GI50,CAKI-1 renal,0.434 µM
same,TGI,CAKI-1 renal,2.8 µM
same,GI50,HCC-2998 colon,7.82 µM
same,TGI,HCC-2998 colon,22.6 µM
same,GI50,NCI-H522 lung,6.94 µM
same,TGI,NCI-H522 lung,> 25.6 µM
same,GI50,OVCAR-5 ovarian,14.2 µM
same,TGI,OVCAR-5 ovarian,99.3 µM
same,GI50,SK-MEL-28 melanoma,3.21 µM
same,TGI,SK-MEL-28 melanoma,10.4 µM
same,GI50,SN12C renal,8.28 µM
same,TGI,SN12C renal,> 54.1 µM
same,GI50,TK-10 renal,1.99 µM
same,TGI,TK-10 renal,6.17 µM
same,GI50,UACC-62 melanoma,5.59 µM
C=CCC1(C)CCCCC1(O)CS(=O)c1ccccc1 (stereo unspecified),TGI,A549 NSCLC,> 100 µM
same,TGI,ACHN renal,> 100 µM
same,TGI,CAKI-1 renal,> 100 µM
same,TGI,HCC-2998 colon,> 100 µM
same,TGI,NCI-H522 lung,> 100 µM
same,TGI,OVCAR-5 ovarian,> 100 µM
same,TGI,SK-MEL-28 melanoma,> 100 µM
same,TGI,SN12C renal,> 100 µM
same,TGI,TK-10 renal,> 100 µM
same,TGI,UACC-62 melanoma,> 100 µM
Cc1c(Cl)cccc1NC(=O)c1cccc([N+](=O)[O-])c1O,TGI,A549 NSCLC,> 72.1 µM
same,TGI,ACHN renal,62.5 µM
same,TGI,CAKI-1 renal,> 64.1 µM
same,TGI,HCC-2998 colon,78.6 µM
same,TGI,NCI-H522 lung,31.6 µM
same,TGI,OVCAR-5 ovarian,> 93.8 µM
same,TGI,SK-MEL-28 melanoma,> 77 µM
same,TGI,SN12C renal,97.4 µM
same,TGI,TK-10 renal,> 100 µM
same,TGI,UACC-62 melanoma,7.74 µM
COc1cc(-c2nnc3n2NC=C(C(=O)O)S3)cc(OC)c1OC,TGI,A549 NSCLC,> 100 µM
same,TGI,ACHN renal,> 100 µM
same,TGI,CAKI-1 renal,> 100 µM
same,TGI,HCC-2998 colon,> 100 µM
same,TGI,NCI-H522 lung,> 100 µM
same,TGI,OVCAR-5 ovarian,> 100 µM
same,TGI,SK-MEL-28 melanoma,> 100 µM
same,TGI,SN12C renal,> 100 µM
same,TGI,TK-10 renal,> 100 µM
same,TGI,UACC-62 melanoma,> 100 µM
Clc1nc(Cl)c2ncn(Cc3ccccc3Cn3cnc4c(Cl)nc(Cl)nc43)c2n1,GI50,A549 NSCLC,6.9 µM
same,TGI,A549 NSCLC,21.4 µM
same,GI50,ACHN renal,1.59 µM
same,TGI,ACHN renal,2.96 µM
same,GI50,CAKI-1 renal,2.32 µM
same,TGI,CAKI-1 renal,6.41 µM
same,GI50,HCC-2998 colon,1.88 µM
same,TGI,HCC-2998 colon,3.56 µM
same,GI50,NCI-H522 lung,4.28 µM
same,TGI,NCI-H522 lung,13.7 µM
same,GI50,OVCAR-5 ovarian,5.09 µM
same,TGI,OVCAR-5 ovarian,10.4 µM
same,GI50,SK-MEL-28 melanoma,2.96 µM
same,TGI,SK-MEL-28 melanoma,11.8 µM
same,GI50,SN12C renal,2.31 µM
same,TGI,SN12C renal,7.24 µM
same,GI50,TK-10 renal,2.93 µM
same,TGI,TK-10 renal,11 µM
same,GI50,UACC-62 melanoma,1.66 µM
same,TGI,UACC-62 melanoma,3.25 µM
CCOC(=O)C1=C(N)Oc2c(sc3c(C)cccc23)C1c1ccc(F)cc1 (stereo unspecified),GI50,A549 NSCLC,0.804 µM
same,TGI,A549 NSCLC,17.2 µM
same,GI50,ACHN renal,0.692 µM
same,TGI,ACHN renal,15.9 µM
same,GI50,CAKI-1 renal,0.413 µM
same,TGI,CAKI-1 renal,14.9 µM
same,GI50,HCC-2998 colon,1.72 µM
same,TGI,HCC-2998 colon,8.78 µM
same,GI50,NCI-H522 lung,0.35 µM
same,TGI,NCI-H522 lung,3.29 µM
same,GI50,OVCAR-5 ovarian,1.67 µM
same,TGI,OVCAR-5 ovarian,17.6 µM
same,GI50,SK-MEL-28 melanoma,8.71 µM
same,TGI,SK-MEL-28 melanoma,22.1 µM
same,GI50,SN12C renal,1.11 µM
same,TGI,SN12C renal,14.5 µM
same,GI50,TK-10 renal,13.2 µM
same,TGI,TK-10 renal,29.5 µM
same,GI50,UACC-62 melanoma,0.399 µM
same,TGI,UACC-62 melanoma,13.5 µM
COc1ccc(-c2cc(Nc3ccnc(N4CCOCC4)n3)on2)cc1,GI50,A549 NSCLC,0.224 µM
same,TGI,A549 NSCLC,12.1 µM
same,GI50,ACHN renal,0.74 µM
same,TGI,ACHN renal,13.6 µM
same,GI50,CAKI-1 renal,0.089 µM
same,TGI,CAKI-1 renal,18.7 µM
same,GI50,HCC-2998 colon,0.461 µM
same,TGI,HCC-2998 colon,10.6 µM
same,GI50,NCI-H522 lung,0.0815 µM
same,TGI,NCI-H522 lung,3.12 µM
same,GI50,OVCAR-5 ovarian,0.684 µM
same,TGI,OVCAR-5 ovarian,20.8 µM
same,GI50,SK-MEL-28 melanoma,4.1 µM
same,TGI,SK-MEL-28 melanoma,19.9 µM
same,GI50,SN12C renal,0.7 µM
same,TGI,SN12C renal,16.6 µM
same,GI50,TK-10 renal,10.9 µM
same,TGI,TK-10 renal,24.9 µM
same,GI50,UACC-62 melanoma,0.115 µM
same,TGI,UACC-62 melanoma,15.9 µM
Cc1ccc(N2C(=O)N(c3ccc(C)cc3)C3(SC=NN3C)C2=O)cc1 (stereo unspecified),TGI,A549 NSCLC,> 100 µM
same,TGI,ACHN renal,> 100 µM
same,TGI,CAKI-1 renal,> 100 µM
same,TGI,HCC-2998 colon,> 100 µM
same,TGI,NCI-H522 lung,> 100 µM
same,TGI,SK-MEL-28 melanoma,> 100 µM
same,TGI,SN12C renal,> 100 µM
same,TGI,TK-10 renal,> 100 µM
same,TGI,UACC-62 melanoma,> 100 µM
